From paper PMC5862592, “CDK8/19 inhibition induces premature G1/S transition and ATR-dependent cell death in prostate cancer cells” (Oncotarget, 2018)
Where two headings read alike, the source gives them in different places.

Legend:
Test in all cases: biochemical
Parameters in all cases: KINOMEscan active site-directed competition binding assay (DiscoveRx), 456 kinases, per cent of control at 300 nM
Conditions in all cases: read-out: Percent of Control (%)
[1] = target: ACVR1B (Homo sapiens, UniProt P36896)
Procedure, shortened: (§1)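 Binding was measured with an active site-directed competition binding assay that quantifies compound–kinase interactions. Test compounds were screened at 300 nmol/L across a 456-kinase panel.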

[2] = target: BMX (Homo sapiens, UniProt P51813)
Procedure, shortened: as §1

[3] = target: CAMK1 (Homo sapiens, UniProt Q14012)
Chain of CAMK1 (Q14012 whole entry): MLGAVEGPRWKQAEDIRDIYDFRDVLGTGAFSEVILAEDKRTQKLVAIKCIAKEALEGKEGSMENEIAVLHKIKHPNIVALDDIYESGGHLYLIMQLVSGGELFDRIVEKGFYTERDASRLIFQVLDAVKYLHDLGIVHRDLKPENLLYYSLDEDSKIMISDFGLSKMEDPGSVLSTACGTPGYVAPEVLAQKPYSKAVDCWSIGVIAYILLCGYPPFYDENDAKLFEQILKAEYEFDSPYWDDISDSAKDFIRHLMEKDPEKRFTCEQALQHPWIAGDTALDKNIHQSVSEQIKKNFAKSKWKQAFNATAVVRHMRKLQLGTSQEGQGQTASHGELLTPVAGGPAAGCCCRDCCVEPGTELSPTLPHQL
Procedure, shortened: as §1

[4] = target: CAMK1D (Homo sapiens, UniProt Q8IU85)
Chain of CAMK1D (Q8IU85 whole entry): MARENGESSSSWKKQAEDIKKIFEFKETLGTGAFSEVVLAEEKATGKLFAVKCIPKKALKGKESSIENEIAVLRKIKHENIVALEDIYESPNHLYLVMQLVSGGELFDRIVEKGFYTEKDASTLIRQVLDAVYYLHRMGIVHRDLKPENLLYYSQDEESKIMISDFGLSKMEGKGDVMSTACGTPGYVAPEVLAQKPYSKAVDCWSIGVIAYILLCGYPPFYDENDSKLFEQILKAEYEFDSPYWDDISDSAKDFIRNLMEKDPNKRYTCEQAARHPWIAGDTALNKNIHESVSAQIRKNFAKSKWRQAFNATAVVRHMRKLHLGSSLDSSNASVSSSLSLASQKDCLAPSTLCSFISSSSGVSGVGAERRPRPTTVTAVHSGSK
Procedure, shortened: as §1

[5] = target: CSNK1E (Homo sapiens, UniProt P49674)
Chain of CSNK1E (P49674 whole entry): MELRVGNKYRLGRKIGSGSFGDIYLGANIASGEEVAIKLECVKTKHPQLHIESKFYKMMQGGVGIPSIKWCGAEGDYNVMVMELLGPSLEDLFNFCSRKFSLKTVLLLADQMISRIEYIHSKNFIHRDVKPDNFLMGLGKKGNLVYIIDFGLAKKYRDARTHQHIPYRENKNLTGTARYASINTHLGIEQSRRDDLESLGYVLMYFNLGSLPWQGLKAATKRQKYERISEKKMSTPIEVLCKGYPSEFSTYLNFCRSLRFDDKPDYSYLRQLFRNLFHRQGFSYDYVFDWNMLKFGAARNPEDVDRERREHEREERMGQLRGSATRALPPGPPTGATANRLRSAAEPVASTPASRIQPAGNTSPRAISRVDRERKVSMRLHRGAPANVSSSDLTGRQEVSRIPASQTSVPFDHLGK
Procedure, shortened: as §1

[6] = target: FGR (Homo sapiens, UniProt P09769)
Procedure, shortened: as §1

[7] = target: HIPK3 (Homo sapiens, UniProt Q9H422)
Procedure, shortened: as §1

[8] = target: MAP3K2 (Homo sapiens, UniProt Q9Y2U5)
Procedure, shortened: as §1

[9] = target: T1, MEK6 (Homo sapiens, UniProt P52564)
T1 construct: gene MAP2K6
T1 sequence (P52564 whole entry): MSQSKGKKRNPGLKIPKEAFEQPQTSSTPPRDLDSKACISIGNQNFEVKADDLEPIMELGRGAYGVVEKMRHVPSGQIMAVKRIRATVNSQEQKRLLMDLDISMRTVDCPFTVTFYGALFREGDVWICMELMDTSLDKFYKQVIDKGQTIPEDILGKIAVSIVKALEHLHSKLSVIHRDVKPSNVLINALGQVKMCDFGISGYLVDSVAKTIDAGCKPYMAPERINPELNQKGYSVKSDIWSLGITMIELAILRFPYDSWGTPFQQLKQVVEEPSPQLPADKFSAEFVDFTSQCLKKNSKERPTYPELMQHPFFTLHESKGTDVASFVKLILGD
Procedure, shortened: as §1

[10] = target: MKNK1 (Homo sapiens, UniProt Q9BUB5)
Chain of MKNK1 (Q9BUB5 whole entry): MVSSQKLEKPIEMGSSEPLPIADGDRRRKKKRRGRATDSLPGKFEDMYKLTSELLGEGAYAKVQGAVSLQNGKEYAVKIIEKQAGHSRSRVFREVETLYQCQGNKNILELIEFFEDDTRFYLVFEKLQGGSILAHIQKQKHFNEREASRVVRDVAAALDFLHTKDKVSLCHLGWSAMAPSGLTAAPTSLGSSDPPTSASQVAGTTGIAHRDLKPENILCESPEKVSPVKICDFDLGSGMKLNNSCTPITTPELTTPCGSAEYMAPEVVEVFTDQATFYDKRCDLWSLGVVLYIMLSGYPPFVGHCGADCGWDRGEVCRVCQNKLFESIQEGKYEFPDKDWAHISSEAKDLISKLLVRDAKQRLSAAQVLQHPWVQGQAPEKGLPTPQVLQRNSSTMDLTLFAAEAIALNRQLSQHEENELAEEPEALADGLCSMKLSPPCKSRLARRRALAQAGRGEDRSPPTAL
Procedure, shortened: as §1

[11] = target: PIK3CA(C420R) (Homo sapiens, UniProt P42336, C420R)
Chain of PIK3CA(C420R) (P42336 whole entry C420R): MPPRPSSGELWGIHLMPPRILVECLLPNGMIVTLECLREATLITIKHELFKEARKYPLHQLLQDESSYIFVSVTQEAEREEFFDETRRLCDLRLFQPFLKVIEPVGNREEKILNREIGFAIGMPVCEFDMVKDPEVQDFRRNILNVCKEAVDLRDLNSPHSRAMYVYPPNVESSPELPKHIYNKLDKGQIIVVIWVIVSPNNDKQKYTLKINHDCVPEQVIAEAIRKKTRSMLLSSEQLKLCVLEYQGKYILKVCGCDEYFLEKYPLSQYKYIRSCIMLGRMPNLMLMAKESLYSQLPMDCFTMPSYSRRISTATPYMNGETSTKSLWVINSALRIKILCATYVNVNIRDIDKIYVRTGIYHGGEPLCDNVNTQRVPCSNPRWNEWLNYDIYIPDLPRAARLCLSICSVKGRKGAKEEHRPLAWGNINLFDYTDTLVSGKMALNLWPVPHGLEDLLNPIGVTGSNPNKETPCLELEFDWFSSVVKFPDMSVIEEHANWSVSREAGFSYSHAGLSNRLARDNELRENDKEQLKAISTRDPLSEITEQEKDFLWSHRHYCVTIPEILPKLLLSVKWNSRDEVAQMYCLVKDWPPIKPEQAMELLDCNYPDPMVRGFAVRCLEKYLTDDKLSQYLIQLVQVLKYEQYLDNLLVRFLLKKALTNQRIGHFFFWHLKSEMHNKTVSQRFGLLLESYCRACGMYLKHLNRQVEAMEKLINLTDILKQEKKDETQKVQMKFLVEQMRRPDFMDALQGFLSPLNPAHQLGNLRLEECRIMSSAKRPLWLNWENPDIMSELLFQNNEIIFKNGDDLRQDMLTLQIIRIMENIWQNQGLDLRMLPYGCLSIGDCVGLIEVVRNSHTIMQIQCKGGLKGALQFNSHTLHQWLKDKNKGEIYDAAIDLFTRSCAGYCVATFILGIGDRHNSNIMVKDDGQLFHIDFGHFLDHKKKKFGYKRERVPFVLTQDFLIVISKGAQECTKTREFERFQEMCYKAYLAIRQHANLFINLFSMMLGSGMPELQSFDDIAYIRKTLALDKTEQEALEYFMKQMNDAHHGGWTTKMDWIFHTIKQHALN
Procedure, shortened: as §1

[12] = target: PIK3CA(H1047Y) (Homo sapiens, UniProt P42336, H1047Y)
Chain of PIK3CA(H1047Y) (P42336 whole entry H1047Y): as the sequence (P42336 whole entry C420R) above, with R420C, H1047Y counted along it
Procedure, shortened: as §1

[13] = target: PKMYT1 (Homo sapiens, UniProt Q99640)
Chain of PKMYT1 (Q99640 whole entry): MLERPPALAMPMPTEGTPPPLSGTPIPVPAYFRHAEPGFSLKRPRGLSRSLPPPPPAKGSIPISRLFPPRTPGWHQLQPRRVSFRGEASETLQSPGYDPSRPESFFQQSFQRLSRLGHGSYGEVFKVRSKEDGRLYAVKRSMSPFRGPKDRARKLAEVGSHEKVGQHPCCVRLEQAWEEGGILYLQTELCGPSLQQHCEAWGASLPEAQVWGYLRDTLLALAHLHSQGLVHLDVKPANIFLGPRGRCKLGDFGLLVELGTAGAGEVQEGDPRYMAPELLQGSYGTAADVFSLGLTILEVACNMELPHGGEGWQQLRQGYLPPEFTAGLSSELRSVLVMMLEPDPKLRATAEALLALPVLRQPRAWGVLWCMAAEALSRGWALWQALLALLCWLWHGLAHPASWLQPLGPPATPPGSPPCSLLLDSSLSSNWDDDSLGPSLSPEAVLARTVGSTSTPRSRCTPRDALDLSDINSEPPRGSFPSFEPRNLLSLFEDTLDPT
Procedure, shortened: as §1

[14] = target: T2, RPS6KA4(Kin.Dom.1-N-terminal) (Homo sapiens, UniProt O75676)
T2 construct: Kin.Dom.1-N-terminal
T2 sequence (O75676 whole entry): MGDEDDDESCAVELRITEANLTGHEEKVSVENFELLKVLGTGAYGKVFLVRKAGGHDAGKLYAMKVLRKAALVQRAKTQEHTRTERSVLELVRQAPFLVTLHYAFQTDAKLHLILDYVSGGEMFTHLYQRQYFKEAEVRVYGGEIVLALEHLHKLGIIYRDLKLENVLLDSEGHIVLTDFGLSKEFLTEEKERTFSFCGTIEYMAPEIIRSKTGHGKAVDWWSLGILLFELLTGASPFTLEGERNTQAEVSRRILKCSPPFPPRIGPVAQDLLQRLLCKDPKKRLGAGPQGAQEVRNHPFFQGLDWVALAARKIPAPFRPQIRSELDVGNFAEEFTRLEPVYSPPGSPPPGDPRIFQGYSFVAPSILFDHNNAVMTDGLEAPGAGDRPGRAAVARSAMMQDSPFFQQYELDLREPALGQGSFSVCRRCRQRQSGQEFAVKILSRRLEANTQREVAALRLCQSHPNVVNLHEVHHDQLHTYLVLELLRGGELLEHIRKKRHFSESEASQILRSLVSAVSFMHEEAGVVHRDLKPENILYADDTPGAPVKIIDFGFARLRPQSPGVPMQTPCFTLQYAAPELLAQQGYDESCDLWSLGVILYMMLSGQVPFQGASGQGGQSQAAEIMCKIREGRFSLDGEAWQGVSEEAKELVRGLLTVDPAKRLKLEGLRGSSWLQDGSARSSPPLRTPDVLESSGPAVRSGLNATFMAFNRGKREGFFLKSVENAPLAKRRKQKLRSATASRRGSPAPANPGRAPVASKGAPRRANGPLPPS
Procedure, shortened: as §1

[15] = target: T3, RPS6KA5(Kin.Dom.1-N-terminal) (Homo sapiens, UniProt O75582)
T3 construct: Kin.Dom.1-N-terminal
Procedure, shortened: as §1

[16] = target: T4, RSK4(Kin.Dom.2-C-terminal) (Homo sapiens, UniProt Q9UK32)
T4 construct: gene RPS6KA6; Kin.Dom.2-C-terminal
Procedure, shortened: as §1

[17] = target: T5, SGK (Homo sapiens, UniProt O00141)
T5 construct: gene SGK1
Procedure, shortened: as §1

[18] = target: T6, TAK1 (Homo sapiens, UniProt O43318)
T6 construct: gene MAP3K7
T6 sequence (O43318 whole entry): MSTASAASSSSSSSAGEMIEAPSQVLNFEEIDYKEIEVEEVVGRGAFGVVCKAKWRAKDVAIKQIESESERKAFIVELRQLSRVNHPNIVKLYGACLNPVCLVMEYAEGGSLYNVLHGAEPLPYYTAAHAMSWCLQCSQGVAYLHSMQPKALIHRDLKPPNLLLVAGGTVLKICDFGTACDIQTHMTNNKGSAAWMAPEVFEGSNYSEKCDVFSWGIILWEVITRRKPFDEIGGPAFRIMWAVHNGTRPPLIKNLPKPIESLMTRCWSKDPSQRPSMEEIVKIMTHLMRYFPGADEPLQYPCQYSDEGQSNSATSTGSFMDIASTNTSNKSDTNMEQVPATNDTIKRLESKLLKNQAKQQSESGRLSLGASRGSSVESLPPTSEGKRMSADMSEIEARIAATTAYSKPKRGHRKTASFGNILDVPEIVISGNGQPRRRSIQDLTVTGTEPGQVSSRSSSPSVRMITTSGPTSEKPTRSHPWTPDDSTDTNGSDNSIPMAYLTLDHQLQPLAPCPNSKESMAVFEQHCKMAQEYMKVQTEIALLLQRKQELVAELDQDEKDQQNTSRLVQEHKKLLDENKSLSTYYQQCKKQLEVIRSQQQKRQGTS
Procedure, shortened: as §1

[19] = target: TNK2 (Homo sapiens, UniProt Q07912)
Procedure, shortened: as §1

[20] = target: TXK (Homo sapiens, UniProt P42681)
Procedure, shortened: as §1

[21] = target: T7, TYK2(JH2domain-pseudokinase) (Homo sapiens, UniProt P29597)
T7 construct: JH2domain-pseudokinase
Procedure, shortened: as §1

O=C(/C=C/c1cnccc1-c1ccc(F)cc1)Nc1ccc(CCc2nnco2)cc1 [T-418, (2E)-3-(4-(4-fluorophenyl)pyridin-3-yl)-N-(4-(2-(1,3,4-oxadiazol-2-yl)ethyl)phenyl)acrylamide]
remaining binding at 0.3 µM ([1]; sheet T-418): 77%
remaining binding at 0.3 µM ([2]; sheet T-418): 100%
remaining binding at 0.3 µM ([3]; sheet T-418): 70%
remaining binding at 0.3 µM ([4]; sheet T-418): 94%
remaining binding at 0.3 µM ([5]; sheet T-418): 89%
remaining binding at 0.3 µM ([6]; sheet T-418): 93%
remaining binding at 0.3 µM ([7]; sheet T-418): 64%
remaining binding at 0.3 µM ([8]; sheet T-418): 100%
remaining binding at 0.3 µM ([9]; sheet T-418): 99%
remaining binding at 0.3 µM ([10]; sheet T-418): 44%
remaining binding at 0.3 µM ([11]; sheet T-418): 86%
remaining binding at 0.3 µM ([12]; sheet T-418): 73%
remaining binding at 0.3 µM ([13]; sheet T-418): 73%
remaining binding at 0.3 µM ([14]; sheet T-418): 90%
remaining binding at 0.3 µM ([15]; sheet T-418): 80%
remaining binding at 0.3 µM ([16]; sheet T-418): 100%
remaining binding at 0.3 µM ([17]; sheet T-418): 88%
remaining binding at 0.3 µM ([18]; sheet T-418): 100%
remaining binding at 0.3 µM ([19]; sheet T-418): 100%
remaining binding at 0.3 µM ([20]; sheet T-418): 72%
remaining binding at 0.3 µM ([21]; sheet T-418): 100%

Cc1ncccc1Oc1sc(C(N)=O)c2c1-c1c(cnn1C)CC2 [T-474, 1-methyl-8-((2-methylpyridin-3-yl)oxy)-4,5-dihydro-1H-thieno[3,4-g]indazole-6-carboxamide]
remaining binding at 0.3 µM [1]: 77%
remaining binding at 0.3 µM [2]: 82%
remaining binding at 0.3 µM [3]: 66%
remaining binding at 0.3 µM [4]: 79%
remaining binding at 0.3 µM [5]: 76%
remaining binding at 0.3 µM [6]: 100%
remaining binding at 0.3 µM [7]: 79%
remaining binding at 0.3 µM [8]: 100%
remaining binding at 0.3 µM [9]: 92%
remaining binding at 0.3 µM [10]: 50%
remaining binding at 0.3 µM [11]: 95%
remaining binding at 0.3 µM [12]: 54%
remaining binding at 0.3 µM [13]: 71%
remaining binding at 0.3 µM [14]: 100%
remaining binding at 0.3 µM [15]: 100%
remaining binding at 0.3 µM [16]: 100%
remaining binding at 0.3 µM [17]: 100%
remaining binding at 0.3 µM [18]: 100%
remaining binding at 0.3 µM [19]: 100%
remaining binding at 0.3 µM [20]: 66%
remaining binding at 0.3 µM [21]: 100%
